As a reminder, the IC50 is the point on the concentration scale where inhibition reaches its midpoint. Low readings indicate greater potency in that assay, high ones weaker potency in that assay.

Consider 1 molecule from patent EP0563238B1, “IMIDAZOLYL-ALKENOIC ACIDS” (SMITHKLINE BEECHAM CORPORATION, priority 1990, dated 1992).

In this assay the target is vascular angiotensin II receptors. Kind of assay: 125I-angiotensin II radioligand binding assay. Conditions: particular fraction from rat mesenteric arteries, 80 pM 125I-angiotensin II, 1 hour at 25°C; concentration needed to displace 50% of the total specifically bound angiotensin II. The protocol:
Angiotensin II antagonist activity of the compounds of Formula (I) is assessed by in vitro and in vivo methods. In vitro antagonist activity is determined by the ability of the compounds to compete with ^125I-angiotensin II for binding to vascular angiotensin II receptors and by their ability to antagonize the contractile response to angiotensin II in the isolated rabbit aorta. In vivo activity is evaluated by the efficacy of the compounds to inhibit the pressor response to exogenous angiotensin II in conscious rats and to lower blood pressure in a rat model of renin dependent hypertension.
The radioligand binding assay is a modification of a method previously described in detail (Gunther et al., Circ. Res. 47:278, 1980). A particular fraction from rat mesenteric arteries is incubated in Tris buffer with 80 pM of ^125I-angiotensin II with or without angiotensin II antagonists for 1 hour at 25°C. The incubation is terminated by rapid filtration and receptor bound ^125I-angiotensin II trapped on the filter is quantitated with a gamma counter. The potency of angiotensin II antagonists is expressed as the IC50 which is the concentration of antagonist needed to displace 50% of the total specifically bound angiotensin II.

For `CCCCc1ncc(/C=C(\Cc2cccs2)C(=O)O)n1-c1ccc(C(=O)O)cc1` [Example 1, (E)-3-[2-n-Butyl-1-{4-carboxyphenyl}-1H-imidazo-5-yl]-2-(2-thienyl)methyl-2-propenoic acid], the IC50 was about 250 nM.
